Entries after “also recorded” stand apart in the source; their conditions may differ. Like-named read-outs stand apart in the source and are kept apart here.
Experiments:
[1] = tested on: male rats of the Wistar-100 line; conditions: rat, in vivo
[2] = tested on: male rats of the Wistar-100 line; conditions: rat, in vivo; remark: listed apart in the source
[3] = tested on: male rats of the Wistar-100 line; conditions: rat, in vivo; remark: listed apart in the source
adult volunteers = conditions: human, in vivo

## O=S(=O)([O-])CC(S)CS.[Na+] (stereo not shown) [Unithiol, 2,3-Dimercaptopropane-sulfonate Na]
[1]
  Alanine aminotransferase (ALT) activity in liver homogenates: twice lower
  activity of enzymes characterizing damage of hepatocyte membranes (ALT, AST): reliably lower than in the control group
  concentration of end products of lipid peroxidation (TBA-positive compounds) in blood plasma: reliably differing from an analogous group without use of Unithiol toward; lowering
  mean content of vitamin E and A in blood plasma: on the level of values in the control group
[1]; po
  content of the main endogenous antioxidants (vitamins E, A, SH-groups): preserved on the level close to the values in the control group
[2]
  concentration of end products of lipid peroxidation (TBA-positive compounds) in blood plasma: reliably differing from an analogous group without use of Unithiol toward; lowering
[2]; po
  content of the main endogenous antioxidants (vitamins E, A, SH-groups): preserved on the level close to the values in the control group
[3]
  biochemical parameters of toxic action of ethanol on liver tissue (lipid peroxides, triglycerides, ALT, AST): oral administration of Unithiol yields essentially better values
Adult volunteers
  biochemical values (MDA, vitamins E and A, SH-groups, ALT, AST, triglycerides): did not lead to worsening of the biochemical values; also recorded: restoration of the initial (basic) level of the biochemical values
  time after intake at which the subjective perception of withdrawal is removed: 8 to 10 min
